Measurements published in ChEMBL document CHEMBL6109138 (J Med Chem, 2025).
Values after ≈ are worked out from the molar mass of the structure shown.

Legend:
[1] = target: T1, D(4) dopamine receptor (Homo sapiens) (UniProt P21917); assay: Partial agonist activity at D4 receptor (unknown origin) assessed as bias factor by Gi activation assay versus beta-arrestin recruitment assay; type: functional; conditions: filed as partial agonist
T1 sequence (whole entry): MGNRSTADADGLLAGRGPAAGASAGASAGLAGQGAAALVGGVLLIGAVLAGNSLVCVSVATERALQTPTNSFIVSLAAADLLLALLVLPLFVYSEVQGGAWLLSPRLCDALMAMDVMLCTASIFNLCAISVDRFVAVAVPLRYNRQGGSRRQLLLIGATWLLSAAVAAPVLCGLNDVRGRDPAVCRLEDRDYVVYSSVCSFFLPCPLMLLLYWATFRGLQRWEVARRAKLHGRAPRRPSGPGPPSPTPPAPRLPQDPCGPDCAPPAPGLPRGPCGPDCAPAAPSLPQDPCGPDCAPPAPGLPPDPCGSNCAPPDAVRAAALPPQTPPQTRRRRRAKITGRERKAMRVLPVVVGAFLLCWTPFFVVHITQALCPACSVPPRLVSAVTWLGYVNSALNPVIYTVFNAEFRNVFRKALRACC

[2] = Metabolic stability in mouse liver microsomes assessed as half-life; type: ADME, Microsome
[3] = Metabolic stability in human liver microsomes assessed as intrinsic clearance measured per mg protein; type: ADME, Microsome; conditions: read-out: CLH
[4] = Apparent passive permeability across apical to basolateral side in MDCKII-MDR1 cells; type: ADME, cell-based, Canis lupus familiaris; conditions: dog, MDCK-MDR1
T98G [5] = assay: Growth inhibition of human T98G cells incubated for 48 hrs by SRB assay; type: functional
U-251 [6] = assay: Antitumor activity against human U-251MG cells assessed as total growth inhibition incubated for 48 hrs by SRB assay; type: functional
U-251 [7] = assay: Growth inhibition of human U-251MG cells incubated for 48 hrs by SRB assay; type: functional
[8] = Metabolic stability in human liver microsomes assessed as half-life; type: ADME, Microsome
[9] = Apparent passive permeability across basolateral to apical side in MDCKII-MDR1 cells; type: ADME, cell-based, Canis lupus familiaris; conditions: dog, MDCK-MDR1
T98G [10] = assay: Antitumor activity against human T98G cells assessed as total growth inhibition incubated for 48 hrs by SRB assay; type: functional
[11] = Protein binding in human plasma assessed as unbound fraction at 0.5 uM; type: ADME, cell-free
[12] = Metabolic stability in mouse liver microsomes assessed as intrinsic clearance measured per mg protein; type: ADME, Microsome; conditions: read-out: CLH
U-87 MG [13] = assay: Antitumor activity against human U-87 MG cells assessed as total growth inhibition incubated for 48 hrs by SRB assay; type: functional, U-87MG ATCC
T98G [14] = assay: Antitumor activity against human T98G cells assessed as lethal concentration incubated for 48 hrs by SRB assay; type: functional
U-87 MG [15] = assay: Antitumor activity against human U-87 MG cells assessed as lethal concentration incubated for 48 hrs by SRB assay; type: functional, U-87MG ATCC
[16] = Metabolic stability in human liver microsomes assessed as intrinsic clearance measured per gram liver; type: ADME, Microsome
D(2) dopamine receptor = D(2) dopamine receptor (Homo sapiens, UniProt P14416); assay: Displacement of [3H]N-methylspiperone from human D2L receptor extracted from HEK293 cell membrane assessed as inhibition constant incubated for 1 hrs by radioligand competitive binding based scintillation counter analysis; type: cell membranes
U-87 MG [17] = assay: Growth inhibition of human U-87 MG cells incubated for 48 hrs by SRB assay; type: functional, U-87MG ATCC
[18] = Metabolic stability in mouse liver microsomes assessed as intrinsic clearance measured per gram liver; type: ADME, Microsome
[19] = Kinetic solubility of compound pH 7.4; type: physicochemical; conditions: buffer, read-out: Kinetic_solubility
[20] = Protein binding in mouse plasma assessed as unbound fraction at 0.5 uM; type: ADME, cell-free
U-251 [21] = assay: Antitumor activity against human U-251MG cells assessed as lethal concentration incubated for 48 hrs by SRB assay; type: functional; conditions: read-out: LC50 (the source's name)
[22] = target: T1, D(4) dopamine receptor (Homo sapiens); assay: Partial agonist activity at D4 receptor (unknown origin) assessed as bias factor by beta-arrestin recruitment assay versus Gi activation assay; type: functional; conditions: filed as partial agonist

Sequence of D(2) dopamine receptor (P14416 whole entry): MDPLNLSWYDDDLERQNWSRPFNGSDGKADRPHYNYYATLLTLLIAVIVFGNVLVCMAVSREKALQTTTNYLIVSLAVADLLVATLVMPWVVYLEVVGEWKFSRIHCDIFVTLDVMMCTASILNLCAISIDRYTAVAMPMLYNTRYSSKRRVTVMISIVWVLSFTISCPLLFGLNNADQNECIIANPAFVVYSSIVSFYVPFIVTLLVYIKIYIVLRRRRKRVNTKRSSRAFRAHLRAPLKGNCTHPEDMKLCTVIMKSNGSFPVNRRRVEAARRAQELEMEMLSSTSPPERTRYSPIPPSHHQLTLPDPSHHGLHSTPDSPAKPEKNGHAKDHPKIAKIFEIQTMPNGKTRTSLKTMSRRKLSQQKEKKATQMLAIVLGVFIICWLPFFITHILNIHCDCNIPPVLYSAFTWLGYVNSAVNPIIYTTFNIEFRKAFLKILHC

SMILES	GI50 (T98G [5]) [µM]	TGI (U-251 [6]) [µM]	GI50 (U-251 [7]) [µM]	TGI (T98G [10]) [µM]	TGI (U-87 MG [13]) [µM]	Ki (D(2) dopamine receptor) [µM]	GI50 (U-87 MG [17]) [µM]	CC50 (U-251 [21]) [µM]	also measured
CC(C)N1C[C@H](NC(=O)N2Cc3ccccc3[C@@H]2C)[C@@H](C)C1									Activity [1]: 17
O=C1CCc2ccccc2N1CCCN1CCN(c2ccc3ccccc3c2)CC1	20	63.2	26.5	42.1	55.2	6.17	25.7	201	half-life [2]: 6.86 min; microsomal CLint [3]: 73.8 µL/min/mg; Papp A→B [4]: 1.77 ×10⁻⁶ cm/s; half-life [8]: 18.8 min; Papp B→A [9]: 2.06 ×10⁻⁶ cm/s; fraction unbound at 0.5 µM [11]: 0.41; microsomal CLint [12]: 202 µL/min/mg; LC50 (lethal concentration 50%) (T98G [14]): 96.7 µM; LC50 (U-87 MG [15]): 118 µM; scaled CLint [16]: 2.95 mL/min/g; scaled CLint [18]: 9.09 mL/min/g; solubility kinetic [19]: 163 µM (≈ 65.1 µg/mL); fraction unbound at 0.5 µM [20]: 0.71
O=C1CCc2ccccc2N1CCCN1CCN(C2CCCCC2)CC1						25.1			
O=C1CCc2ccccc2N1CCCN1CCN(c2cccc3ccccc23)CC1	12.2	36.6	22.6	32.1	39.5	0.0288	19.5	78.7	half-life [2]: 4.81 min; microsomal CLint [3]: 145 µL/min/mg; Papp A→B [4]: 1.84 ×10⁻⁶ cm/s; half-life [8]: 9.58 min; Papp B→A [9]: 3.47 ×10⁻⁶ cm/s; fraction unbound at 0.5 µM [11]: 0.23; microsomal CLint [12]: 288 µL/min/mg; LC50 (lethal concentration 50%) (T98G [14]): 71 µM; LC50 (U-87 MG [15]): 80 µM; scaled CLint [16]: 5.78 mL/min/g; scaled CLint [18]: 13 mL/min/g; solubility kinetic [19]: 112 µM (≈ 44.7 µg/mL); fraction unbound at 0.5 µM [20]: 0.48
O=C1CCc2ccccc2N1CCCN1CCN(c2ccc(Cl)cc2)CC1	21.9	104	61.6	66.1	102		42.6	182	LC50 (lethal concentration 50%) (T98G [14]): 200 µM; LC50 (U-87 MG [15]): 245 µM
O=C1CCc2ccccc2N1CCCN1CCN(c2ccc(C(F)(F)F)cc2)CC1						29.5			
O=C1CCc2ccccc2N1CCCN1CCN(c2ccc(F)cc2)CC1						4.07			
O=C1CCc2ccccc2N1CCCN1CCN(c2ccc(Br)cc2)CC1						3.16			
Cn1nnc2c(C(N)=O)ncn2c1=O [TEMOZOLOMIDE]	> 200	> 200	> 200	> 200	> 200		> 200	> 200	
O=C1CCc2ccccc2N1CCCN1CCN(c2ccccc2-c2ccccc2)CC1						0.0759			
Cc1ccc2nc(CNCCCOc3ccccc3)cc(O)c2c1									Activity [22]: 7.4
COC(=O)c1ccc(N2CCN(CCCN3C(=O)CCc4ccccc43)CC2)cc1						46.8			
O=C1CCc2ccccc2N1CCCN1CCN(c2ccc(I)cc2)CC1						3.24			
